According to publication PMC2649009 (Journal of medicinal chemistry, 2008):

Target: T1, human GIVA cPLA2 (Homo sapiens, UniProt P47712)
T1 sequence (P47712 1-749): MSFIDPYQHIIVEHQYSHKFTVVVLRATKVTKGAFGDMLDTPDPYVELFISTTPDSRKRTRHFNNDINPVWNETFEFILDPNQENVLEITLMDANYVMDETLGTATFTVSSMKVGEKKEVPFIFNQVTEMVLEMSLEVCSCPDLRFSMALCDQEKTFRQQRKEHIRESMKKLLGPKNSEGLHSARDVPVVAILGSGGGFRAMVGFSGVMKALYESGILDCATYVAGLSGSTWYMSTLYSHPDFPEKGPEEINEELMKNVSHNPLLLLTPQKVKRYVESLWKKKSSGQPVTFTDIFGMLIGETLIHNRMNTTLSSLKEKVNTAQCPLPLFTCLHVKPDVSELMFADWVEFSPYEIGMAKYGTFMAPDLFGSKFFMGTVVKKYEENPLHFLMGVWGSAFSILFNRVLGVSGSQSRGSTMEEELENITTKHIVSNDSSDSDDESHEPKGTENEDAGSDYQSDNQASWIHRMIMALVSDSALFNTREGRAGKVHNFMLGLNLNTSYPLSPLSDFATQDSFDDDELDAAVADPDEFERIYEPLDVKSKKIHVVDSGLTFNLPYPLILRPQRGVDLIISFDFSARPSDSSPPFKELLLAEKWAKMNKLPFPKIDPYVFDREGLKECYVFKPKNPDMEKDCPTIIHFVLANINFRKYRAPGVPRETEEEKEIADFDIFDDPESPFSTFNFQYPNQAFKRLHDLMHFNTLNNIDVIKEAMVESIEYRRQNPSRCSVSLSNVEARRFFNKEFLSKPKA
Assay: mixed micelle-based modified Dole assay, GIVA cPLA2 inhibition
Type: biochemical
Conditions: mole fraction of inhibitor in total substrate interface giving 50% inhibition

Structure (SMILES)	GIVA cPLA2 XI(50)
CCCCCCCCCCCCCCCC(=O)C(F)(F)F [compound 6, palmitoyl trifluoromethyl ketone, reference compound]	0.0223 mole fraction
CCCCCCCCCCCCCCC(F)C(=O)C(F)(F)F (centres unmarked) [compound 26, 1,1,1,3-Tetrafluoro-heptadecan-2-one]	0.0167 mole fraction
